According to patent US7786141B2 (Vertex Pharmaceuticals Incorporated, priority 2004, dated 2010):

Columns and labels:
M1 muscarinic receptor = target: T1, M1 muscarinic receptor (Homo sapiens, UniProt P11229); assay: Functional mobilization of intracellular calcium (FLIPR) in M1-CHO cells; assay type: cell-based; conditions: Table 4; for Emax: 100% efficacy is the maximum response obtained with the Carbachol control; for M1 Activity: modulating M1 receptor
T1 construct: expressed in transfected cells; host or cells: CHO (M1-CHO)
T1 sequence (P11229 1-460): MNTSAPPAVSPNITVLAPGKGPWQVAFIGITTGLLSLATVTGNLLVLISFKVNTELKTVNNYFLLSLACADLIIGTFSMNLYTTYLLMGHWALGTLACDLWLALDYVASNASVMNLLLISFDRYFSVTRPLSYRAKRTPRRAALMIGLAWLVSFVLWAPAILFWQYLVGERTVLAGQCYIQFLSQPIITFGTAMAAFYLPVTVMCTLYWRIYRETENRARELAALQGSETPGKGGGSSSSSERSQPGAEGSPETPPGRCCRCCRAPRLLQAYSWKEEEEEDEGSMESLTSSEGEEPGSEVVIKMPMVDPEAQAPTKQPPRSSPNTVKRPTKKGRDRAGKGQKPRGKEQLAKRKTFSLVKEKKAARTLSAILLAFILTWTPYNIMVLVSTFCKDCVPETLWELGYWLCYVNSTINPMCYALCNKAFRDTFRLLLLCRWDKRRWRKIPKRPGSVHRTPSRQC
Summary of the method: (§1)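 Measured via Fluo-3 fluorescence on a FLIPR, CHO cells with either muscarinic subtype received compound in 0.5% DMSO. Antagonism was assessed after 15 min pre-incubation followed by carbachol at each subtype's EC80; agonism from compound addition alone.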

M4 muscarinic receptor = target: T2, M4 muscarinic receptor (Homo sapiens, UniProt P08173); assay: Functional mobilization of intracellular calcium (FLIPR) in M4-CHO cells; assay type: cell-based; conditions: Table 4; for Emax: 100% efficacy is the maximum response obtained with the Carbachol control; for M4 Activity: modulating M4 receptor
T2 construct: expressed in transfected cells; host or cells: CHO (M4-CHO)
T2 sequence (P08173 1-479): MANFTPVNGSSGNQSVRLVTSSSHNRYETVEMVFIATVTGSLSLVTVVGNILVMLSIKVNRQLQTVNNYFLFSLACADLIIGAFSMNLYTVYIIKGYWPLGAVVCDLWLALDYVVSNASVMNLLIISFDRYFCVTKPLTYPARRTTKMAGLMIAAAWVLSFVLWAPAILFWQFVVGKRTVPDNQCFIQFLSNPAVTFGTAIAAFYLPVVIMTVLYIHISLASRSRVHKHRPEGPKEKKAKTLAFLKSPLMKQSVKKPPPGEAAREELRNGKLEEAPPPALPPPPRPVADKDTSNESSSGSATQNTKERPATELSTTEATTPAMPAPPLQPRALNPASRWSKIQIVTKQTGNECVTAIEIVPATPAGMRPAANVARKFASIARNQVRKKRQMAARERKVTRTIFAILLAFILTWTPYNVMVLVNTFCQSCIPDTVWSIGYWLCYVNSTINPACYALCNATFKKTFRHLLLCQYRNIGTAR
Summary of the method: as §1

| Compound | Emax (M1 muscarinic receptor) [%] | M1 Activity (M1 muscarinic receptor) | Emax (M4 muscarinic receptor) [%] | M4 Activity (M4 muscarinic receptor) |
| --- | --- | --- | --- | --- |
| CC(=O)NC1CCC2(CCN(CCC3CCCN(C(=O)OC(C)C)C3)CC2)c2ccccc21 (stereo not shown) [compound 731] | < 25 | xxx (activity was measured to be less than 2.0 μM) | < 25 | x (activity was measured to be greater than 5.0 μM) |
| O=C1CC2(CCN([C@@H]3C[C@H]4CC[C@@H]3C4)CC2)c2ccccc21 [compound 732] | 25 to 100 | x (activity was measured to be greater than 5.0 μM) | 25 to 100 | xx (activity was measured to be between 2.0 μM and 5.0 μM) |
| CN(C)C(=O)CN1CC2(CCN(C[C@H]3C[C@H]4C=CC3C4)CC2)c2cc(F)ccc21 [compound 734] | 25 to 100 | xxx (activity was measured to be less than 2.0 μM) | 25 to 100 | xxx (activity was measured to be less than 2.0 μM) |
| COc1cccc(N2CCC(N3CCC4(CC3)CN(C(=O)N(C)C)c3ccc(F)cc34)CC2)c1 [compound 735] | 25 to 100 | xx (activity was measured to be between 2.0 μM and 5.0 μM) | 25 to 100 | xxx (activity was measured to be less than 2.0 μM) |
| COCCN1CC2(CCN([C@@H]3C[C@H]4CCC3C4)CC2)c2cc(C)ccc21 [compound 737] | 25 to 100 | xx (activity was measured to be between 2.0 μM and 5.0 μM) | 25 to 100 | xxx (activity was measured to be less than 2.0 μM) |
| CC(=O)N[C@H]1CCC2(CCN(CC3CC4C=CC3C4)CC2)c2ccccc21 (stereo partly shown) [compound 740] | 25 to 100 | xxx (activity was measured to be less than 2.0 μM) | 25 to 100 | xxx (activity was measured to be less than 2.0 μM) |
| CC(=O)NC1CCC2(CCN(CCC3CCCN(C(=O)OCC(C)C)C3)CC2)c2ccccc21 (stereo not shown) [compound 741] | < 25 | x (activity was measured to be greater than 5.0 μM) | < 25 | x (activity was measured to be greater than 5.0 μM) |
| CC(=O)N1CC2(CCN(C3CC4CCC(C3)N4C(=O)OC(C)C)CC2)c2ccccc21 (stereo not shown) [compound 742] | 25 to 100 | xxx (activity was measured to be less than 2.0 μM) | 25 to 100 | xxx (activity was measured to be less than 2.0 μM) |
| CCC(C)C(=O)N1C2CCC1CC(N1CCC3(CC1)CN(C(C)=O)c1ccccc13)C2 (stereo not shown) [compound 743] | < 25 | x (activity was measured to be greater than 5.0 μM) | < 25 | x (activity was measured to be greater than 5.0 μM) |
| O=C(N[C@H]1CCC2(CCN(C3CC4CCC(C4)C3)CC2)c2ccccc21)C1CC1 (stereo partly shown) [compound 744] | 25 to 100 | xxx (activity was measured to be less than 2.0 μM) | 25 to 100 | xxx (activity was measured to be less than 2.0 μM) |
| CCOC(=O)N1C2CCC1CC(N1CCCC3(CC1)CN(C(C)=O)c1ccc(F)cc13)C2 (stereo not shown) [compound 746] | 25 to 100 | xxx (activity was measured to be less than 2.0 μM) | 25 to 100 | xxx (activity was measured to be less than 2.0 μM) |
| C#CCCOC(=O)N1C2CCC1CC(N1CCC3(CC1)CN(C(C)=O)c1ccccc13)C2 (stereo not shown) [compound 747] | 25 to 100 | xxx (activity was measured to be less than 2.0 μM) | 25 to 100 | xxx (activity was measured to be less than 2.0 μM) |
| CCCOC(=O)N1CCCC(N2CCC3(CC2)CN(C(=O)N(C)C)c2ccc(F)cc23)CC1 (stereo not shown) [compound 749] | 25 to 100 | xxx (activity was measured to be less than 2.0 μM) | 25 to 100 | xxx (activity was measured to be less than 2.0 μM) |
| CCOC(=O)N1CCC(N2CCC3(CC2)CN(C(=O)N(CC)CC)c2ccccc23)CC1 [compound 750] | 25 to 100 | xxx (activity was measured to be less than 2.0 μM) | 25 to 100 | xxx (activity was measured to be less than 2.0 μM) |
| CCOC(=O)N1CCC(N2CCC3(CC2)CN(C2CCCCC2=O)c2ccc(F)cc23)CC1 (stereo not shown) [compound 751] | 25 to 100 | xxx (activity was measured to be less than 2.0 μM) | 25 to 100 | xxx (activity was measured to be less than 2.0 μM) |
| CCOC(=O)N1CCC(N2CCC3(CC2)CN(c2cnccn2)c2ccc(F)cc23)CC1 [compound 752] | 25 to 100 | xxx (activity was measured to be less than 2.0 μM) | 25 to 100 | xxx (activity was measured to be less than 2.0 μM) |
| COC(=O)N1CCC(N2CCC3(CC2)CN(C(C)=O)c2ccccc23)CC1 [compound 753] | 25 to 100 | xx (activity was measured to be between 2.0 μM and 5.0 μM) | 25 to 100 | xx (activity was measured to be between 2.0 μM and 5.0 μM) |
| CCOC(=O)N1C2CCC1CC(N1CCC3(CC1)CN(C(C)=O)c1ccc(OC)cc13)C2 (stereo not shown) [compound 754] | 25 to 100 | xxx (activity was measured to be less than 2.0 μM) | 25 to 100 | xxx (activity was measured to be less than 2.0 μM) |
| CCN(CC)C(=O)N[C@H]1CC2(CCN(C3CC4CC[C@@H]3C4)CC2)c2ccccc21 (stereo partly shown) [compound 755] | < 25 | x (activity was measured to be greater than 5.0 μM) | 25 to 100 | xxx (activity was measured to be less than 2.0 μM) |
| CCOC(=O)N1CCC(N2CCC3(CC2)CN(C2CCCC2=O)c2ccc(F)cc23)CC1 (stereo not shown) [compound 756] | 25 to 100 | xxx (activity was measured to be less than 2.0 μM) | 25 to 100 | xxx (activity was measured to be less than 2.0 μM) |
| CC(=O)N1CC2(CCN(CC3CCN(C(=O)OC4CCC4)CC3)CC2)c2cc(C)ccc21 [compound 757] | < 25 | x (activity was measured to be greater than 5.0 μM) | < 25 | x (activity was measured to be greater than 5.0 μM) |
| CC1(C)C(=O)c2ccccc2C12CCN([C@@H]1C[C@@H]3CC[C@H]1C3)CC2 [compound 758] | < 25 | x (activity was measured to be greater than 5.0 μM) | < 25 | x (activity was measured to be greater than 5.0 μM) |
| CC(=O)N[C@H]1CC2(CCN(C3CCC(C(C)C)CC3)CC2)c2ccccc21 (stereo partly shown) [compound 759] | < 25 | x (activity was measured to be greater than 5.0 μM) | < 25 | x (activity was measured to be greater than 5.0 μM) |
| COc1ccc(N2CCC(N3CCC4(CC3)CN(C(=O)N(C)C)c3ccc(F)cc34)CC2)nn1 [compound 760] | 25 to 100 | x (activity was measured to be greater than 5.0 μM) | 25 to 100 | xxx (activity was measured to be less than 2.0 μM) |
| CC#CCOC(=O)N1CC[C@H](CN2CCC3(CC2)CN(C(=O)N(C)C)c2ccc(F)cc23)C1 [compound 761] | 25 to 100 | xxx (activity was measured to be less than 2.0 μM) | 25 to 100 | xxx (activity was measured to be less than 2.0 μM) |
| Cc1ncc(N2CCC(N3CCC4(CC3)CN(C(=O)N(C)C)c3ccc(F)cc34)CC2)nc1C [compound 762] | 25 to 100 | xxx (activity was measured to be less than 2.0 μM) | 25 to 100 | xxx (activity was measured to be less than 2.0 μM) |
| CC(=O)N[C@H]1CCC2(CCN(CCC3=C(C)CCCC3(C)C)CC2)c2ccccc21 [compound 764] | 25 to 100 | xxx (activity was measured to be less than 2.0 μM) | < 25 | xxx (activity was measured to be less than 2.0 μM) |
| CCOC(=O)N1CCC(N2CCC3(CC(=O)c4cc(F)ccc43)C2)CC1 (stereo not shown) [compound 765] | 25 to 100 | x (activity was measured to be greater than 5.0 μM) | < 25 | x (activity was measured to be greater than 5.0 μM) |
